{
  "source": "patent US12202844B2",
  "about": "“MAP4K1 inhibitors” (Blueprint Medicines Corporation, priority 2021, dated 2025)",
  "data": [
    {"biological_target": "T1, MAP4K1 (HPK1) (Homo sapiens, UniProt Q92918)", "T1 construct": "purchased Invitrogen", "T1 sequence (Q92918 whole entry)": "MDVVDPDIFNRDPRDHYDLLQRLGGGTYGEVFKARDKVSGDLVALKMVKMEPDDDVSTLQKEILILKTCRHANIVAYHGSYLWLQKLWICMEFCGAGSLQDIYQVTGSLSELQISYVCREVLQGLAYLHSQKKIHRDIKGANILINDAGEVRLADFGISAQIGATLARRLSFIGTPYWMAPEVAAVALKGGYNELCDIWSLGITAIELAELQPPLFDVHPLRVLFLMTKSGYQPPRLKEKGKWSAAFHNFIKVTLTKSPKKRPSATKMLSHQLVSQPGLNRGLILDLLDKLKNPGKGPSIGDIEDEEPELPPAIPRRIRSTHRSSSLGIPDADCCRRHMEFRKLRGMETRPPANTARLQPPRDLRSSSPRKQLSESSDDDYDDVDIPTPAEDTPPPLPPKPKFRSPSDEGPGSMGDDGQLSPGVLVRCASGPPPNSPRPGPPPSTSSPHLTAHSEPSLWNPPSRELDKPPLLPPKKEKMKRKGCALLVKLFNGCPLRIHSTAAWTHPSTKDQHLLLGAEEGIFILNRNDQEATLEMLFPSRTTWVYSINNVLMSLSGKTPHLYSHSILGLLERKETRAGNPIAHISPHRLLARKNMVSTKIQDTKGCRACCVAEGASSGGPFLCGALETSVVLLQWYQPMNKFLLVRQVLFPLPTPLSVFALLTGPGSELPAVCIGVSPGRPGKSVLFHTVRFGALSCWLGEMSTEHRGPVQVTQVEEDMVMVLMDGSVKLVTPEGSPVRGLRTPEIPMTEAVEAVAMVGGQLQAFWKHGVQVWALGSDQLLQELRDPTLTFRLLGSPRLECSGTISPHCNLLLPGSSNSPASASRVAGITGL", "assay": "Inhibition of MAP4K1 biochemical enzymatic activity (EZReader 2 electrophoretic mobility shift)", "conditions": "HPK1 (Invitrogen), S6K2tide 1.5 μM, 120 min; ATP 26 μM or 1000 μM (not given)", "description": "MAP4K1 (HPK1) and relevant off-target enzymatic activity was monitored using the Perkin Elmer electrophoretic mobility shift technology platform—the EZReader 2. […] Within the linear, steady-state phase of the kinase enzymatic reaction, the mixed pool of phosphorylated (product) and non-phosphorylated (substrate) peptides was passed through the microfluidic system of the PerkinElmer EZ Reader 2, under an applied electric potential difference. The presence of the phosphate group on the product peptide provided a difference in mass and charge between that of the substrate peptide, resulting in a separation of the substrate and product pools in the sample (Perrin et al. 2010). As the product and substrate peptide mixture passes the lasers within the instrument, these pools are detected (λex=488 nm, λem=568 nm) and resolved as separate peaks. The ratio between these peaks reflects the activity of the compound at that concentration, in that well, under those conditions.\nInhibitors were dissolved in 100% DMSO at a stock concentration of 10 mM. A 100×, 10-point, 4-fold serial dilution of each inhibitor was created in 100% DMSO either manually or on a Hamilton STAR liquid handler, starting at a relevant concentration, usually 1 mM. A volume of 0.130 μL of each concentration was transferred to the relevant wells of a 384-well plate (Greiner 781 201) in duplicate using a TTPLabtech Mosquito nano-litre dispenser. Using a Multidrop Combi, the remaining constituents of the kinase reaction were added to the 130 nL of dosed compound as follows (see table below for final reaction details):\nEnzyme activity assays at the ^APPKM for ATP or 1 mM ATP: In each well of a 384-well plate, 0.1-15 nM of untreated enzyme was incubated in a total of 13 μL of buffer (100 mM HEPES pH 7.5, 0.015% Brij 35, 10 mM MgCl2, 1 mM DTT) with 1.5 μM fluorescent peptid and 20-1000 μM ATP, at 25° C., for 60-180 minutes in the presence or absence of a dosed concentration series of compound (1% DMSO final concentration). The kinase reactions were stopped by the addition of 70 μl of Stop buffer (100 mM HEPES pH 7.5, 0.015% Brij 35, 35 mM EDTA and 0.2% of Coating Reagent 3 (Caliper Lifesciences)). The plates were read on a Caliper EZReader 2 as described above.", "units": {"IC50": "nM"}, "values": [
      {"smiles": "CC[C@@](C)(N)c1cnc(O[C@@H](C)CC(C)(C)S(C)(=O)=O)c2cnc(Nc3ccc4c(n3)[C@@H](C)[C@H](C)OC4=O)cc12", "note": "(single isomer, unassigned) [Compound 185]", "IC50": 0.22},
      {"smiles": "C[C@H](C[C@H]1CCCS1(=O)=O)Oc1ncc(C(C)(C)N)c2cc(Nc3ccc4c(n3)[C@@H](C)C(C)(C)OC4=O)ncc12", "note": "(single isomer, unassigned) [Compound 158]", "IC50": 0.86},
      {"smiles": "C[C@@H]1OC(=O)c2ccc(Nc3cc4c(C(C)(C)N)cnc(O[C@@H](C)C[C@@H]5CCCS5(=O)=O)c4cn3)nc2[C@H]1C", "note": "(single isomer, unassigned) [Compound 154]", "IC50": 0.62},
      {"smiles": "CC[C@@](C)(N)c1cnc(O[C@H](C)C[C@@H](C)S(C)(=O)=O)c2cnc(Nc3ccc4c(n3)C(C)(C)[C@H](C)OC4=O)cc12", "note": "(single isomer, unassigned) [Compound 130]", "IC50": 0.22},
      {"smiles": "CC[C@@](C)(N)c1cnc(O[C@H]2C[C@H](CS(C)(=O)=O)C2)c2cnc(Nc3ccc4c(n3)[C@@H](C)C(C)(C)OC4=O)cc12", "note": "[Compound 113]", "IC50": 0.14},
      {"smiles": "C[C@@H]1COC(=O)c2ccc(Nc3cc4c(C(C)(C)N)cnc(O[C@H]5C[C@@H](S(=O)(=O)C6CC6)C5)c4cn3)nc21", "note": "(single isomer, unassigned) [Compound 25]", "IC50": 1.53},
      {"smiles": "C[C@@H]1c2nc(Nc3cc4c(C(C)(C)N)cnc(OCC5CS(=O)(=O)C5)c4cn3)ccc2C(=O)OC1(C)C", "note": "[Compound 12]", "IC50": 0.56},
      {"smiles": "CC[C@@](C)(N)c1cnc(O[C@H]2C[C@@H](S(C)(=O)=O)C2)c2cnc(Nc3ccc4c(n3)CC(C)(C)OC4=O)cc12", "note": "[Compound 32]", "IC50": 0.18},
      {"smiles": "C[C@H](CCS(C)(=O)=O)Oc1ccc(C(C)(C)N)c2cc(Nc3ccc4c(n3)[C@@H](C)C(C)(C)OC4=O)ncc12", "note": "(single isomer, unassigned) [Compound 45]", "IC50": 0.2},
      {"smiles": "CC[C@@](C)(N)c1cnc(O[C@H](C)CCS(C)(=O)=O)c2cnc(Nc3ccc4c(n3)CC(C)(C)OC4=O)cc12", "note": "[Compound 49]", "IC50": 0.31},
      {"smiles": "CCC[C@@](C)(N)c1cnc(O[C@H](C)C[C@@H](C)S(C)(=O)=O)c2cnc(Nc3ccc4c(n3)CC(C)(C)OC4=O)cc12", "note": "(single isomer, unassigned) [Compound 124]", "IC50": 0.26},
      {"smiles": "C[C@H](C[C@@H](C)S(C)(=O)=O)Oc1ncc([C@@](C)(N)C2CC2)c2cc(Nc3ccc4c(n3)CC(C)(C)OC4=O)ncc12", "note": "(single isomer, unassigned) [Compound 108]", "IC50": 0.22},
      {"smiles": "CC[C@@](C)(N)c1cnc(O[C@@H](C)CCS(C)(=O)=O)c2cnc(Nc3ccc4c(n3)C3(CC3)C(C)(C)OC4=O)cc12", "note": "[Compound 146]", "IC50": 1.41},
      {"smiles": "C[C@@H]1OC(=O)c2ccc(Nc3cc4c(C(C)(C)N)cnc(O[C@@H]5CC[C@H](S(C)(=O)=O)C5)c4cn3)nc2[C@H]1C", "note": "(single isomer, unassigned) [Compound 40]", "IC50": 0.86},
      {"smiles": "CC[C@@](C)(N)c1cnc(O[C@H]2C[C@@H](CS(C)(=O)=O)C2)c2cnc(Nc3ccc4c(n3)[C@@H](C)C(C)(C)OC4=O)cc12", "note": "[Compound 114]", "IC50": 0.17},
      {"smiles": "CC(C)(N)c1cnc(O[C@H]2C[C@@H](S(C)(=O)=O)C2)c2cnc(Nc3ccc4c(n3)C3(CC3)C(C)(C)OC4=O)cc12", "note": "[Compound 59]", "IC50": 0.15},
      {"smiles": "C[C@H]1[C@H](Oc2ncc(C(C)(C)N)c3cc(Nc4ccc5c(n4)[C@@H](C)C(C)(C)OC5=O)ncc23)C[C@@H]1S(C)(=O)=O", "note": "(single isomer, unassigned) [Compound 68]", "IC50": 0.51},
      {"smiles": "CC[C@@](C)(N)c1cnc(O[C@H]2C[C@@H](S(C)(=O)=O)C2)c2cnc(Nc3ccc4c(n3)[C@@H](C)[C@@H](C)OC4=O)cc12", "note": "(single isomer, unassigned) [Compound 149]", "IC50": 0.25},
      {"smiles": "CC[C@@](C)(N)c1cnc(OCCCS(C)(=O)=O)c2cnc(Nc3ccc4c(n3)C3(CC3)C(C)(C)OC4=O)cc12", "note": "[Compound 44]", "IC50": 0.19},
      {"smiles": "C[C@@H]1[C@@H](Oc2ncc(C(C)(C)N)c3cc(Nc4ccc5c(n4)[C@@H](C)[C@H](C)OC5=O)ncc23)C[C@H]1S(C)(=O)=O", "note": "(single isomer, unassigned) [Compound 31]", "IC50": 0.2},
      {"smiles": "C[C@@H]1OC(=O)c2ccc(Nc3cc4c(C(C)(C)N)cnc(O[C@@H](C)C[C@@H]5CCCS5(=O)=O)c4cn3)nc2[C@H]1C", "note": "(single isomer, unassigned) [Compound 156]", "IC50": 2.38},
      {"smiles": "C[C@H](C[C@@H](C)S(C)(=O)=O)Oc1ncc([C@@](C)(N)C2CC2)c2cc(Nc3ccc4c(n3)[C@@H](C)[C@H](C)OC4=O)ncc12", "note": "(single isomer, unassigned) [Compound 109]", "IC50": 0.15},
      {"smiles": "CC[C@@](C)(N)c1cnc(O[C@H]2C[C@@H](S(C)(=O)=O)C2)c2cnc(Nc3ccc4c(n3)C3(CC3)[C@@H](C)OC4=O)cc12", "note": "(single isomer, unassigned) [Compound 58]", "IC50": 0.1},
      {"smiles": "CC[C@@](C)(N)c1cnc(O[C@H](C)CC[S@@+](C)[O-])c2cnc(Nc3ccc4c(n3)[C@@H](C)[C@H](C)OC4=O)cc12", "note": "(single isomer, unassigned) [Compound 166]", "IC50": 0.2},
      {"smiles": "CC[C@@H](CCS(C)(=O)=O)Oc1ncc([C@](C)(N)CC)c2cc(Nc3ccc4c(n3)[C@@H](C)[C@H](C)OC4=O)ncc12", "note": "(single isomer, unassigned) [Compound 83]", "IC50": 0.92},
      {"smiles": "COC[C@@](C)(N)c1cnc(O[C@H](C)C[C@@H](C)S(C)(=O)=O)c2cnc(Nc3ccc4c(n3)C3(CC3)[C@H](C)OC4=O)cc12", "note": "(single isomer, unassigned) [Compound 165]", "IC50": 1.15},
      {"smiles": "C[C@@H]1COC(=O)c2ccc(Nc3cc4c(C(C)(C)N)cnc(O[C@H]5C[C@@H](S(C)(=O)=O)C5)c4cn3)nc21", "note": "(single isomer, unassigned) [Compound 5]", "IC50": 1.77},
      {"smiles": "COC[C@@](C)(N)c1cnc(OCCCS(C)(=O)=O)c2cnc(Nc3ccc4c(n3)[C@@H](C)C(C)(C)OC4=O)cc12", "note": "[Compound 135]", "IC50": 0.45},
      {"smiles": "C[C@@H]1c2nc(Nc3cc4c(C(C)(C)N)cnc(O[C@H](CCS(C)(=O)=O)C(F)(F)F)c4cn3)ccc2C(=O)OC1(C)C", "note": "(single isomer, unassigned) [Compound 173]", "IC50": 9.8},
      {"smiles": "C[C@H](CCS(C)(=O)=O)Oc1ncc(C(C)(C)N)c2cc(Nc3ccc4c(n3)[C@@H](C)C(C)(C)OC4=O)ncc12", "note": "(single isomer, unassigned) [Compound 54]", "IC50": 0.82},
      {"smiles": "CCS(=O)(=O)C[C@H](C)[C@@H](C)Oc1ncc(C(C)(C)N)c2cc(Nc3ccc4c(n3)[C@@H](C)C(C)(C)OC4=O)ncc12", "note": "(single isomer, unassigned) [Compound 131]", "IC50": 1.94},
      {"smiles": "C[C@@H]1OC(=O)c2ccc(Nc3cc4c(C(C)(C)N)cnc(O[C@@H](CCS(C)(=O)=O)C(F)(F)F)c4cn3)nc2[C@H]1C", "note": "(single isomer, unassigned) [Compound 174]", "IC50": 5.35},
      {"smiles": "CC[C@@](C)(N)c1cnc(O[C@@H](C)CC(C)(C)S(C)(=O)=O)c2cnc(Nc3ccc4c(n3)C(C)(C)[C@H](C)OC4=O)cc12", "note": "(single isomer, unassigned) [Compound 192]", "IC50": 0.94},
      {"smiles": "C[C@@H]1OC(=O)c2ccc(Nc3cc4c(C(C)(C)N)cnc(O[C@@H]5CC[C@@H](S(C)(=O)=O)C5)c4cn3)nc2[C@H]1C", "note": "(single isomer, unassigned) [Compound 34]", "IC50": 0.56},
      {"smiles": "COC[C@@](C)(N)c1cnc(O[C@H]2C[C@@H](S(C)(=O)=O)C2)c2cnc(Nc3ccc4c(n3)C3(CC3)[C@H](C)OC4=O)cc12", "note": "(single isomer, unassigned) [Compound 163]", "IC50": 0.22}
    ]}
  ]
}
